Laboratory results as given in US20250129103A1, “METHODS FOR TREATMENT OF CANCER” (Frontier Medicines Corporation, priority 2022, published 2025).
Converted amounts (≈) assume the structure as drawn.

What was measured:
[1] = target: KRAS G12C (GMPPNP-loaded) and cRAF (Ras-binding domain) interaction (Homo sapiens (Human), UniProt P01116, C118S/C51S/C80L/G12C); assay: Inhibition of KRAS G12C and cRAF binding (AlphaScreen); conditions: KRAS G12C loaded with GMPPNP, cRaf RBD, 2 hours preincubation; read-out: Raf-1 RBD K-Ras IC50
Method in brief: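 GMPPNP-loaded KRAS G12C in 25 mM Hepes pH 7.4, 150 mM NaCl, 5 mM MgCl2, 0.01% Triton X-100, 10 μM GMPPNP, 2% DMSO, preincubated with compound 2 h at room temperature. cRAF RBD plus AlphaScreen beads then added for 60-90 min; signal read at 570 nm.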

[2] = target: KRAS G12C (GMPPNP-loaded) and PI3Ka (Ras-binding domain) interaction (Homo sapiens (Human), UniProt P01116, C118S/C51S/C80L/G12C); assay: Inhibition of KRAS G12C and PI3Ka binding (AlphaScreen); conditions: KRAS G12C loaded with GMPPNP, PI3Ka RBD, 2 hours preincubation; read-out: PI3K RBD K-Ras IC50
Method: The AlphaScreen technology was used to determine IC50S for compound inhibition of KRAS G12C (present as the Cys-light (C51S, C80L and C118S), truncated version comprising amino acids 1-169) and PI3Ka interaction. Compounds were diluted in 100% DMSO and each compound concentration was spotted at 200 nl/well onto low volume, white 384 well plates. The KRAS G12C contained a biotin-AviTag and the PI3Ka, as Ras-binding domain (amino acids 157-300, RBD), was His-tagged. KRAS G12C was preloaded with the GTP analogue Guanosine 5′-[β,γ-imido]triphosphate (GMPPNP). The KRAS G12C was diluted in 25 mM Hepes, pH 7.4, 150 mM NaCl, 5 mM MgCl2, 0.01% TritonX-100 and 10 μM GMPPNP and added at 10 ul/well to compound-spotted plates resulting in a DMSO concentration of 2%. Plates were incubated for 2 hours. A mixture of RBD and the AlphaScreen streptavidin donor and nickel chelate acceptor beads diluted in 25 mM Hepes, pH 7.4, 150 mM NaCl, 5 mM MgCl2, 0.01% TritonX-100 and 2% DMSO was then added at 10 ul/well and incubated for 60-90 minutes before the samples were read for emission at 570 nm after excitation of the donor beads at 680 nm. All incubations were performed at room temperature. The final top compound concentration was 50 μM with 1:3 titrations for 10-point dose response curves. Final assay conditions were 1.5 nM KRAS G12C, 100 nM RBD, 1.25 ug/ml of AlphaScreen donor beads and 10 μg/ml AlphaLISA acceptor beads. IC50s were determined using nonlinear regression fit of [inhibitor] vs. response (4 parameters). […]

[3] = Determination of logD (1-octanol / phosphate buffer pH 7.4); assay type: physicochemical; conditions: for logD: 1-octanol/phosphate buffer, pH 7.4, pH 7.4, 1-octanol/phosphate buffer, read-out: Log D, pH 7.4
Method in brief: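 Shake-flask partition between 1-octanol and 100 mM phosphate buffer pH 7.4, each phase presaturated with the other overnight. Tubes shaken 1 h at 800 rpm, room temperature, then centrifuged. Both phases quantified by LCMS and logD calculated from the ratio.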

[4] = Determination of kinetic solubility (pH 7.4); assay type: physicochemical; conditions: phosphate buffer, pH 7.4, aqueous buffer, kinetic from dmso stock, 50 mM phosphate buffer pH 7.4, read-out: Ksol, pH 7.4
Method in brief: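 Sample mixed with 50 mM phosphate buffer, pH 7.4, vortexed, then shaken 2 h at room temperature and centrifuged. Filtrate analysed by HPLC-UV and LC-MS/MS, with solubility read from peak areas against a standard calibration curve.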

IC50 [1] [nM] | IC50 [2] [nM] | logD [3] | solubility kinetic at 2 h [4] [µg/mL] | Compound | Log D, pH 7.4 ([3]; pH 7.4, 1-octanol/phosphate buffer)
< 10 | < 10 | 3.09 |  | Cc1cc(N)nc(C2Cc3nc(OC[C@@]45CCCN4C[C@H](F)C5)nc(N4CCN(C(=O)/C=C/C5CCN5C)[C@@H](CC#N)C4)c3CC2C)c1C(F)(F)F (mixture of isomers) [Example 68, 2-((2S)-4-(7-(6-amino-4-methyl-3-(trifluoromethyl)pyridin-2-yl)-2-(((2R,7aS)-2-fluorohexahydro-1H-pyrrolizin-7a-yl)methoxy)-6-methyl-5,6,7,8-tetrahydroquinazolin-4-yl)-1-((E)-3-(1-methylazetidin-2-yl)acryloyl)piperazin-2-yl)acetonitrile] | 
10 to 100 | < 10 | 4.42 |  | Cc1noc(/C=C/C(=O)N2CCN(c3nc(OC[C@@]45CCCN4C[C@H](F)C5)nc4c3CCN(c3cccc5cccc(Cl)c35)C4)C[C@@H]2CC#N)n1 [Compound 2, 2-((S)-4-(7-(8-chloronaphthalen-1-yl)-2-(((2R,7aS)-2-fluorohexahydro-1H-pyrrolizin-7a-yl)methoxy)-5,6,7,8-tetrahydropyrido[3,4-d]pyrimidin-4-yl)-1-((E)-3-(3-methyl-1,2,4-oxadiazol-5-yl)acryloyl)piperazin-2-yl)acetonitrile] | 
< 10 | < 10 | 4.78 | 0.01 (≈ 0.0134 µM) | N#CC[C@H]1CN(c2nc(OC[C@@]34CCCN3C[C@H](F)C4)nc3c2CCN(c2cccc4cccc(Cl)c24)C3)CCN1C(=O)/C=C/c1nc(C(F)F)no1 [Compound 18] | 
< 10 | < 10 | 3.33 | 24.4 (≈ 33.5 µM) | N#CC[C@H]1CN(c2nc(OCC34CCCN3CCC4)nc3c2CCN(c2cccc4cccc(Cl)c24)C3)CCN1C(=O)/C=C/c1nc(C(F)F)no1 [Compound 19] | 
10 to 100 | 10 to 100 | 3.38 | 12.5 (≈ 17.3 µM) | N#CC[C@H]1CN(c2nc(OCC34CCCN3CCC4)nc3c2CCN(c2cccc4cccc(Cl)c24)C3)CCN1C(=O)/C=C/c1nc(C2CC2)no1 [Compound 23] | 
> 500 | ≥ 500 | 4.9 | 0.01 (≈ 0.0141 µM) | CCc1noc(/C=C/C(=O)N2CCN(c3nc(OCC45CCCN4CCC5)nc4c3CCN(c3cccc5cccc(Cl)c35)C4)C[C@@H]2CC#N)n1 [Compound 25] | 
100 to 500 | 100 to 500 | 2.66 | 80.2 (≈ 111 µM) | CCc1noc(/C=C/C(=O)N2CCN(c3nc(OCC45CCCN4CCC5)nc4c(F)c(-c5cccc6cccc(Cl)c56)ncc34)C[C@@H]2CC#N)n1 [Compound 26] | 
10 to 100 | 10 to 100 | 3.09 | 2.33 (≈ 3.16 µM) | CC(C)(C)c1noc(/C=C/C(=O)N2CCN(c3nc(OCC45CCCN4CCC5)nc4c3CCN(c3cccc5cccc(Cl)c35)C4)C[C@@H]2CC#N)n1 [Compound 30] | 
10 to 100 | 10 to 100 | 4.35 | 0.01 (≈ 0.0133 µM) | CC(C)(C)c1noc(/C=C/C(=O)N2CCN(c3nc(OC[C@@]45CCCN4C[C@H](F)C5)nc4c3CCN(c3cccc5cccc(Cl)c35)C4)C[C@@H]2CC#N)n1 [Compound 31] | 
10 to 100 | 10 to 100 | 2.71 | 110 (≈ 148 µM) | N#CC[C@H]1CN(c2nc(OC[C@@]34CCCN3C[C@H](F)C4)nc3c(F)c(-c4cccc5cccc(Cl)c45)ncc23)CCN1C(=O)/C=C/CN1CCOCC1 [Compound 48] | 
< 10 | < 10 | 3.72 | 45.2 (≈ 62 µM) | N#CC[C@H]1CN(c2nc(OC[C@@]34CCCN3C[C@H](F)C4)nc3c2CCN(c2cccc4cccc(Cl)c24)C3)CCN1C(=O)/C=C/CN1CCOCC1 [Compound 49] | 
< 10 | < 10 | 2.27 | 124 (≈ 171 µM) | N#CC[C@H]1CN(c2nc(OCC34CCCN3CCC4)nc3c2CCN(c2cccc4ccc(F)c(Cl)c24)C3)CCN1C(=O)/C=C/CN1CCOCC1 [Compound 50] | 
< 10 | < 10 | 3.8 | 23.8 (≈ 31.8 µM) | N#CC[C@H]1CN(c2nc(OC[C@@]34CCCN3C[C@H](F)C4)nc3c2CCN(c2cccc4ccc(F)c(Cl)c24)C3)CCN1C(=O)/C=C/CN1CCOCC1 [Compound 52] | 
< 10 | < 10 |  |  | Cc1cc(/C=C/C(=O)N2CCN(c3nc(OC[C@@]45CCCN4C[C@H](F)C5)nc4c(F)c(-c5cccc6cccc(Cl)c56)ncc34)C[C@@H]2CC#N)nc(C)n1 [Example 69, 2-((S)-4-(7-(8-chloronaphthalen-1-yl)-8-fluoro-2-(((2R,7aS)-2-fluorotetrahydro-1H-pyrrolizin-7a(5H)-yl)methoxy)pyrido[4,3-d]pyrimidin-4-yl)-1-((E)-3-(2,6-dimethylpyrimidin-4-yl)acryloyl)piperazin-2-yl)acetonitrile] | 
< 10 | < 10 |  |  | C[C@@H]1CN(C/C=C/C(=O)N2CCN(c3nc(OC[C@@]45CCCN4C[C@H](F)C5)nc4c(F)c(-c5cccc6ccc(F)c(Cl)c56)ncc34)C[C@@H]2CC#N)C[C@H](C)O1 [Example 73, 2-((S)-4-(7-(8-chloro-7-fluoronaphthalen-1-yl)-8-fluoro-2-(((2R,7aS)-2-fluorotetrahydro-1H-pyrrolizin-7a(5H)-yl)methoxy)pyrido[4,3-d]pyrimidin-4-yl)-1-((E)-4-((2S,6R)-2,6-dimethylmorpholino)but-2-enoyl)piperazin-2-yl)acetonitrile] | 
< 10 | < 10 |  |  | C[C@@H]1CN(C/C=C/C(=O)N2CCN(c3nc(OC[C@@]45CCCN4C[C@H](F)C5)nc4c(F)c(-c5cccc6ccc(F)c(Cl)c56)ncc34)C[C@@H]2CC#N)C[C@@H](C)O1 [Example 74, 2-((S)-4-(7-(8-chloro-7-fluoronaphthalen-1-yl)-8-fluoro-2-(((2R,7aS)-2-fluorotetrahydro-1H-pyrrolizin-7a(5H)-yl)methoxy)pyrido[4,3-d]pyrimidin-4-yl)-1-((E)-4-((2R,6R)-2,6-dimethylmorpholino)but-2-enoyl)piperazin-2-yl)acetonitrile] | 
< 10 | < 10 |  |  | C[C@H]1CN(C/C=C/C(=O)N2CCN(c3nc(OC[C@@]45CCCN4C[C@H](F)C5)nc4c(F)c(-c5cccc6ccc(F)c(Cl)c56)ncc34)C[C@@H]2CC#N)C[C@H](C)O1 [Example 75, 2-((S)-4-(7-(8-chloro-7-fluoronaphthalen-1-yl)-8-fluoro-2-(((2R,7aS)-2-fluorotetrahydro-1H-pyrrolizin-7a(5H)-yl)methoxy)pyrido[4,3-d]pyrimidin-4-yl)-1-((E)-4-((2S,6S)-2,6-dimethylmorpholino)but-2-enoyl)piperazin-2-yl)acetonitrile] | 

Compound | IC50 [1] [nM] | IC50 [2] [nM] | logD [3] | solubility kinetic at 2 h [4] [µg/mL] | Log D, pH 7.4 ([3]; pH 7.4, 1-octanol/phosphate buffer)
2-((S)-4-(7-(8-chloro-7-fluoronaphthalen-1-yl)-8-fluoro-2-(((2R,7aS)-2-fluorotetrahydro-1H-pyrrolizin-7a(5H)-yl)methoxy)pyrido[4,3-d]pyrimidin-4-yl)-1-((E)-4-((3aR,6aS)-tetrahydro-1H-furo[3,4-c]pyrrol-5(3H)-yl)but-2-enoyl)piperazin-2-yl)acetonitrile [Example 84] | < 10 | < 10 |  |  | 2.97
N#CC[C@H]1CN(c2nc(OC[C@@]34CCCN3C[C@H](F)C4)nc3c(F)c(-c4cccc5ccc(F)c(Cl)c45)ncc23)CCN1C(=O)/C=C/CN1C2COCC1C2 [Example 76, 2-((2S)-1-((E)-4-(3-oxa-6-azabicyclo[3.1.1]heptan-6-yl)but-2-enoyl)-4-(7-(8-chloro-7-fluoronaphthalen-1-yl)-8-fluoro-2-(((2R,7aS)-2-fluorotetrahydro-1H-pyrrolizin-7a(5H)-yl)methoxy)pyrido[4,3-d]pyrimidin-4-yl)piperazin-2-yl)acetonitrile] | < 10 | < 10 |  |  | 
